Reference: patent publication US6228363A, “Peptides for the treatment of systemic lupus erythematosus” (Hadasit Medical Research Services & Development Company Ltd., priority 1997, dated 2001)

How the values were obtained:
[1] = tested on: murine urinary immunoglobulins; assay: Binding of murine urinary immunoglobulins, direct binding ELISA; design: species or system mice; settings: pooled urine
Protocol: (§1) Wells were coated with 10 μg/ml of the peptides, blocked with 1% BSA (bovine serum albumin) in PBS (pH 7,4), reacted with appropriately diluted serum or urine samples or monoclonal antibodies, incubated with anti-human or anti-mouse immunoglobulin enzyme conjugated to alkaline phosphatase and detected by addition of substrate (Sigma 100 Phosphatase Substrate Tablets) and color development using an Organon Teknika Microwell System spectrometer at wavelength of 405 nm.
Thus, pooled urine from at least 5 mice (either MRL/1pr/1pr or control mice, e.g. BALB/c) was added to wells coated with R38' (5200), R18 or DNA as described above and bound 5200 assayed by ELISA.
Binding of Murine Urinary Immunoglobulins To 5200
Each group is comprised of pooled urine.

[2] = tested on: C72 murine anti-DNA antibody; assay: Competitive inhibition of C72 binding to 5200, ELISA; settings: antibody incubated with inhibitor before ELISA
Protocol: Competitive Inhibition Assays:
In competitive inhibition assays, the antibodies were incubated with various concentrations of the inhibitor (for example: peptide, DNA, heparin) or with DNase for 45 minutes at room temperature and the remaining binding was then evaluated by ELISA as described heretofore.
% inhibition was computed as
O.D. binding without inhibitor-O.D. binding with inhibitor×100=%
inhibition O.D. binding without inhibitor
The binding of C72 to 5200 was tested before and after incubation with 5200, R38, R18, Heparin, DNA and DNase. […] The percent inhibition is the percent reduction of the O.D. after incubation with the inhibiting agent.

[3] = tested on: C72 murine anti-DNA antibody; assay: Direct binding ELISA of C72 to laminin peptides; settings: for binding of C72 murine anti-DNA antibody to peptide (FIG. 1): C72 conditioned medium in various dilutions in PBS; for C72 Binding: O.D. in a direct binding ELISA test after one (1) hour
Protocol: The C72 murine anti-DNA antibody has been derived from (NZBxNZW)F1 lupus mice by the hybridoma technique as described in Eilat D. et al J. Immunol. (1991) 147 361-368. The monoclonal anti-DNA antibodies DIL6 and B3 were derived from lupus patients by hybridoma technique as described in Ehrenstein M. R. et al J. Clin. Invest. (1994) 93 1787-1799 and Ehrenstein M. R. et al Kidney Inter. (1995) 48 705-711.
Anti-Peptide (Direct Binding) ELISA:
as §1
The interaction of the C72 murine anti-DNA antibody with laminin peptides was analyzed by ELISA as described above. The C72 conditioned medium was diluted in PBS in various dilutions.
The peptides of the present invention were tested for their ability to bind directly with C72 murine anti-DNA antibodies and B3 human anti-DNA antibodies according to the methods described hereinabove.

| Substance | Binding of murine urinary immunoglobulins to antigen ([1]; BALB/c mice) | Binding of murine urinary immunoglobulins to antigen ([1]; MRL/lpr/lpr mice) | inhibition of the binding of C72 to 5200 (FIG. 2) [2] | binding of C72 murine anti-DNA antibody to peptide (FIG. 1) [3] | C72 Binding [3] |
| --- | --- | --- | --- | --- | --- |
| DNA [reference compound] | U.D. | U.D. | inhibition |  |  |
| DNase |  |  | not |  |  |
| heparin |  |  | inhibition |  |  |

Next, values leading:

| Binding of murine urinary immunoglobulins to antigen ([1]; BALB/c mice) | Binding of murine urinary immunoglobulins to antigen ([1]; MRL/lpr/lpr mice) | inhibition of the binding of C72 to 5200 (FIG. 2) [2] | binding of C72 murine anti-DNA antibody to peptide (FIG. 1) [3] | C72 Binding [3] | Substance |
| --- | --- | --- | --- | --- | --- |
|  |  |  | binding | 0.75 O.D. | KONCLSSRASFRGCVRNLRLSR (PHTHSTSADTNDPIYVGGYPAH; UniProt P19137 3011-3032, looked up, fragment) [Peptide R30, mouse laminin α chain residues 3011-3032] |
| U.D. | U.D. |  | not | 0.01 O.D. | RPVRHAQCRVCDGNSTNPRERH [Peptide R18, peptide from the N-terminal of mouse laminin α chain, residues 42-63] |
